Assay results as given in BindingDB's records for doi:10.1016/j.bmcl.2019.06.040 (Shenyang Pharmaceutical University, 2019).

Molecular target: T1, Cytochrome P450 11B2, mitochondrial (Homo sapiens, UniProt P19099)
T1 sequence (P19099 whole entry): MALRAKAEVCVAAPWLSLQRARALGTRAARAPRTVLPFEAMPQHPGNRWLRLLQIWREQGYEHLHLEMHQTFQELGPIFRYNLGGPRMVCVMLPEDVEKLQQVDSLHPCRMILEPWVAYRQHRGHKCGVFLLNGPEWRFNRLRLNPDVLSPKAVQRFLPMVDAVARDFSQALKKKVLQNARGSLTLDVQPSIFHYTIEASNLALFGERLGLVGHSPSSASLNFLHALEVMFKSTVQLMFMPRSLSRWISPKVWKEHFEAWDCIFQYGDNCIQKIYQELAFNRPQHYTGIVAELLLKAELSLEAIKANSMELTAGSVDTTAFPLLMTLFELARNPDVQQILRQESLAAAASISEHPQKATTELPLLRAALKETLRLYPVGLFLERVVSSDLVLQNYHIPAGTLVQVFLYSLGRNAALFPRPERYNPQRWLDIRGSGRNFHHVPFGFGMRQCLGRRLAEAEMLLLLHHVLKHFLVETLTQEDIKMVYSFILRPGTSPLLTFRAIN
Experiment: Inhibition of CYP11B2 (unknown origin)

Row | IC50 | Compound
1 | 244 nM | Fc1cc2c(cc1-c1cccnc1)CCc1nncn1-2
2 | 172 nM | Fc1cc(-c2cccnc2)cc2c1-n1cnnc1CC2
3 | 63 nM | Cc1nnc2n1-c1c(F)cc(-c3cccnc3)cc1CC2
4 | 131 nM | Cc1nnc2n1-c1cc(F)c(-c3cccnc3)cc1CC2
